The values below come from patent publication US20090239884A1, “Methods of Treating Inflammation” (priority 2006, published 2009).

pIC50: −log10 of the molar value.

In one test the test system is EAE in C57BL/6 mice. Briefly: experimental autoimmune encephalomyelitis (EAE), clinical score. The test is classed as in vivo, mouse. The protocol:
Induction of active EAE and clinical evaluation. Active EAE is induced in 8-12 weeks old mice by immunization with MOG p35-55 in complete Freund's adjuvant. 200 μg of MOG p35-55 peptide and 800 μg of killed mycobacterium tuberculosis are emulsified in CFA and injected subcutaneously by means of four injections over the flanks. In addition, 200 ng of pertussis toxin dissolved in 200 μl PBS is injected i.p. at the day of immunization and again the day after. Mice are monitored daily for clinical signs of EAE, and scored according to the following criteria: 0, no signs of disease; 0.5, partial tail weakness; 1, limp tail; 1.5, limp tail and slight slowing of righting; 2, partial hind limb weakness and/or marked slowing of righting; 2.5, dragging of hind limb(s) without complete paralysis; 3, complete paralysis of at least one hind limb; 4, severe forelimb weakness; 5, moribund or dead. Daily clinical scores are calculated and presented as the average (mean) and standard error of the mean (SEM) of all individual disease scores in each group. Statistical comparison of disease severity by clinical score is accomplished by calculating the mean clinical score for each mouse from day of disease onset to day 60 and performing a non-parametric Wilcoxon analysis.
[…] 8. DP is the only inhibitor known to block PDE 8 in addition to other PDEs. […]

A further test relates to bEnd.3 endothelial cells. Nature of the test: qRT-PCR gene expression in TNF-α activated bEnd.3 endothelial cells. The class given is cell-based, mouse. The note with it: DP 100 μM. The protocol:
Quantitative real-time RT-PCR analysis. 10 ng cDNA, or 2 μl cDNA for LCM studies, was amplified by qRT-PCR in a 25 μl reaction using SYBR Green PCR Master Mix (Applied Biosystems, Foster City, Calif.). Primers were designed using Primer Express software v3.0 and primer efficiency verified by slope analysis to be 100%±2.5%. qRT-PCR was performed using an ABI 7500 fast system and data analyzed using the Δ^ct method (SDS software v3.0). Amplicon sizes were approximately 100 bp.
Cell treatment. Confluent bEnd.3 monolayers were incubated with 200 ng/ml TNF-α (Peprotech, Rocky Hill, N.J.) at 37° c. for 2 hours. […] Christoff Zitt and Armin Hatzelmann (Altana Pharma, Konstanz, Germany). Con A-activated splenocytes or CD4^+CD25^− T cells activated with plate-bound anti-CD3 mAb were treated with the same reagents for 20, 45, or 90 minutes.
In FIG. 23A, bEnd.3 endothelial cells were activated for 2 hours with TNF-α (200 ng/ml) and (A) DP (100 μM) or vehicle (0.1% DMSO) for the final 45 minutes. PDE gene expression was then analyzed by qRT-PCR and the data presented as the mean+SEM of 3 independent experiments assayed in triplicate (*p<0.05, **p<0.001; unpaired t-test).
The data are shown as a mean±SEM percentage of vehicle control and represent 3 independent experiments assayed in triplicate (*p<0.05, * *p<0.001; unpaired t-test).
For orientation: Quantitative PCR measures a nucleic acid by following its amplification.

Test [1] has as its system PDE8A. The following applies: expressed forms of PDE8A; read-out: reported IC50s, PDE8A; cited from earlier work.
Test [2] has as its system T1, PDE8A.
T1 construct: other: expressed forms of full length cDNAs for PDE8
The following applies: expressed forms of full length cDNAs for PDE8; cited from earlier work.

The mark [3] stands for this setting: 45 minutes, dibutryl cAMP 500 μM, 8-bromo-cAMP 500 μM.

As to `OCCN(CCO)c1nc(N2CCCCC2)c2nc(N(CCO)CCO)nc(N3CCCCC3)c2n1` [Dipyridamole, 2,2′,2″,2′″-(4,8-di(piperidin-1-yl)pyrimido[5,4-d]pyrimidine-2,6-diyl)bis(azanetriyl)tetraethanol], the “development of clinical signs of EAE” value in the test on EAE in C57BL/6 mice (2 mg DP per mouse per day, day 0 until day 23) is “profoundly suppressed”. Besides, in the test with EAE in C57BL/6 mice (treatment after onset (mean score grade 1), 2×1 mg/mouse/day i.p.), the “clinical severity of EAE compared with vehicle” value is “significantly decreased”. In addition, the “reduction of ICAM-1 mRNA expression” value with bEnd.3 endothelial cells (45 minutes, dibutryl cAMP 500 μM) was determined as 65%. Also, in the test with bEnd.3 endothelial cells (setting [3]), the “increase of claudin-5 gene expression” value is given as 111%, the “reduction of CXCL12 gene expression” value is recorded as 69% and the “reduction of VCAM-1 gene expression” value is 60%. In the test on bEnd.3 endothelial cells (final 45 minutes of TNF-α), the “PDE4B expression in bEnd.3 cells” value is given as “compensatory increase” and the “expression of other PDE genes, including PDE8A, in bEnd.3 cells” value was “not significantly altered”. Besides, in the test on PDE8A [1], the pIC50 was 5.05 to 5.40.

Regarding `CC(C)Cn1c(=O)n(C)c(=O)c2[nH]cnc21` [IBMX, 3-isobutyl-1-methylxanthine], in the test with PDE8A [2], the “inhibition of expressed forms of PDE8” value is on record as “resistant”.
